Patent US20260159484A1, “AKT3 MODULATORS” (GEORGIAMUNE LLC, priority 2021, published 2026)

target: T1, Akt3 (Mus musculus, UniProt Q9WUA6); assay: Foxp3 induction assay (iTreg induction from CD4 conventional T cells); reported as Akt3 inhibition activity; format: cell-based; conditions: Foxp3 induction in CD4 Tconvs from C57/B16 mice, anti-CD3/anti-CD28, IL2, TGF-β, 3 days of culture, flow cytometry
T1 construct: endogenous in cells; host or cells: primary CD4 conventional T cells (CD4+/CD25-) from C57BL/6 mice
Protocol: Sorted or enriched (Miltenyi magnetic separation) CD4 conventional T cells (Tconvs -CD4+/CD25) from C57/B16 mice were used for the induction of iTregs. A 10 μg/mL plate-bound anti-CD3 antibody (50ul per well for 96-well plate), 2.5 μg/mL of soluble anti-CD28 antibody, 100 IU/mL of IL2 and 5 ng/mL of TGF-β in absence or presence of different concentrations of drug (usually titrating from 0.01 uM to 10 uM) were used. As negative control for induction, samples without TGF-β were used.
After 3 days of culture in presence of stimulation, TGF-β and drug, cells were stained with fixable live/dead cell stain (Life Technologies, NY) for gating and exclusion of toxic doses. The mouse Foxp3 buffer kit was used to fix and permeabilize cells according to the manufacturer's instructions (BD Bioscience, San Jose, CA). The anti-CD4 antibody and anti-Foxp3 antibody were used to stain the cells. After staining, cells were acquired using flow cytometer.

T1 sequence (Q9WUA6 whole entry): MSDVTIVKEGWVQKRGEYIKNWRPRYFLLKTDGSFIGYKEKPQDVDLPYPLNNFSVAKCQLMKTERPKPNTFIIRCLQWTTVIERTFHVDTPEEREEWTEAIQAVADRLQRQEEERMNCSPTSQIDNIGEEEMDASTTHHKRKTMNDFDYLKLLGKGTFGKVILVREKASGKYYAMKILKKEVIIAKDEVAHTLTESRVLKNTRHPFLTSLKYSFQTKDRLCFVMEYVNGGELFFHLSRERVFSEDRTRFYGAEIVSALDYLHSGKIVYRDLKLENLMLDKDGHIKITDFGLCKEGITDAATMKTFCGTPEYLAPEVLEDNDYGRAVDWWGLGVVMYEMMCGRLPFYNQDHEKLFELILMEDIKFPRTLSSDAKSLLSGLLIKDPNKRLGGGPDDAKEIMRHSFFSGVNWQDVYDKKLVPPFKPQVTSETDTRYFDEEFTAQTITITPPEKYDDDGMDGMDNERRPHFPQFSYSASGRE

SMILES	IC50 [nM]
CC(=O)c1ccccc1NC(=O)Cc1ccc(Nc2c(C)cnc3ccccc23)cc1 [Compound 3, N-(2-acetylphenyl)-2-(4-((3-methylquinolin-4-yl)amino)phenyl)acetamide]	< 1000
CC(=O)c1cccc(NC(=O)Cc2ccc(Nc3cc(C)nc4ccccc34)cc2)c1 [Compound 5, N-(3-acetylphenyl)-2-(4-((2-methylquinolin-4-yl)amino)phenyl)acetamide]	< 2000
CC(=O)c1cnccc1NC(=O)Cc1ccc(Nc2cc(C)nc3ccccc23)cc1 [Compound 6, N-(3-acetylpyridin-4-yl)-2-(4-((2-methylquinolin-4-yl)amino)phenyl)acetamide]	< 5000

Continued, values first:

IC50 [nM]	SMILES
< 1000	Cc1cnc2ccccc2c1Nc1ccc(CC(=O)Nc2ccccc2S(N)(=O)=O)cc1 [Compound 1, 2-(4-((3-methylquinolin-4-yl)amino)phenyl)-N-(2-sulfamoylphenyl)acetamide]
< 1000	CC(=O)c1ccccc1NC(=O)c1ccc(Nc2c(C)cnc3ccccc23)cc1 [Compound 2, N-(2-acetylphenyl)-4-((3-methylquinolin-4-yl)amino)benzamide]
